≈ marks a conversion by molar mass, not a printed value.
How the values were obtained:
[1] = Apparent permeability coefficient (Papp) for apical to basolateral flux was determined in MadinDarby Canine Kidney cells; format: ADME, Canis lupus familiaris; details: dog, MDCK
[2] = Oral bioavailability in rat (male Wistar); format: ADME, organism-based; details: in vivo
[3] = Tested for the total clearance of the compound; format: ADME, organism-based; details: in vivo
[4] = Tested for iv terminal half-life dosed as a solution in male Han Wistar rats; format: ADME, organism-based; details: rat, in vivo
[5] = Steady state volume of distribution (Vsss) was determined; format: ADME, organism-based; details: in vivo; read-out: Vsss
[6] = Partition coefficient (logP); format: physicochemical; details: octanol/water
[7] = Tested for equilibrium solubility in fasted state-simulated intestinal fluid at pH 6.8; format: ADME; details: fasted state-simulated intestinal fluid (FS-SIF)

| Compound | Papp A→B [1] | bioavailability [2] | clearance [3] | half-life [4] | Vd [5] | logP [6] | solubility thermodynamic [7] |
| --- | --- | --- | --- | --- | --- | --- | --- |
| CCCC[C@H](NC(=O)OC(C(C)C)C(C)C)C(=O)C(=O)NCc1ccno1 | 41 ×10⁻⁶ cm/s | 32% | 29 mL/min/kg | 0.867 h | 1.2 L/kg | 5 | 63 µg/mL (≈ 165 µM) |
| CCCC[C@H](NC(=O)OC(C(C)C)C(C)C)C(=O)C(=O)NCc1ccncc1 |  | 5.2% | 7.1 mL/min/kg | 4 h | 0.09 L/kg |  | 62 µg/mL (≈ 158 µM) |
| CCCC[C@H](NC(=O)OC(C(C)C)C(C)C)C(=O)C(=O)N[C@H]1CCCNC1=O | 31 ×10⁻⁶ cm/s | 20% | 44 mL/min/kg | 3.67 h | 1.6 L/kg | 4.4 | 350 µg/mL (≈ 880 µM) |
| CCCC[C@H](NC(=O)OC(C(C)C)C(C)C)C(=O)C(=O)NCc1nnco1 | 51 ×10⁻⁶ cm/s | 16% | 33 mL/min/kg | 0.35 h | 0.98 L/kg | 3.4 | 150 µg/mL (≈ 392 µM) |
| CCCC[C@H](NC(=O)OC(C(C)C)C(C)C)C(=O)C(=O)NCc1cncs1 | 48 ×10⁻⁶ cm/s | 55% | 28 mL/min/kg | 2.5 h | 1.3 L/kg | 5.3 | 51 µg/mL (≈ 128 µM) |

The remaining lines, values ahead:

| Papp A→B [1] | bioavailability [2] | clearance [3] | half-life [4] | Vd [5] | logP [6] | solubility thermodynamic [7] | Compound |
| --- | --- | --- | --- | --- | --- | --- | --- |
| 51 ×10⁻⁶ cm/s | 10% | 5.2 mL/min/kg | 1.28 h | 0.24 L/kg |  | 28 µg/mL (≈ 71.5 µM) | CCCC[C@H](NC(=O)OC(C(C)C)C(C)C)C(=O)C(=O)NCc1ccccn1 |
| 5.7 ×10⁻⁶ cm/s | 3.1% | 8.7 mL/min/kg |  | 1.9 L/kg | 7.3 | 12 µg/mL (≈ 29.7 µM) | CCCC[C@H](NC(=O)OC(C(C)C)C(C)C)C(=O)C(=O)N[C@H](C)c1ccccc1 |
|  | 10% | 24 mL/min/kg | 4.33 h | 1.5 L/kg | 5.5 | 32 µg/mL (≈ 67.1 µM) | CNC(=O)NCCCC[C@H](NC(=O)OC(C(C)C)C(C)C)C(=O)C(=O)N[C@H](C)c1ccccc1 |

Source: ChEMBL document CHEMBL1148252, “Orally bioavailable small molecule ketoamide-based inhibitors of cathepsin K” (Bioorg Med Chem Lett, 2004)
